Test results published in patent US20110020252A1, “METHOD OF LONG LASTING HUMAN SKIN TANNING” (priority 2010, published 2011).

What was measured:
skin = details: cited from earlier work
hepatic enzyme = details: compared with Rifampin; cited from earlier work
[1] = cited from earlier work
human skin = assay: Skin tanning with oral Rifampin plus sun/UVR exposure (patient, volunteers, tanning booth users)
[2] = human, in vivo
[3] = Safety of Rifampin at 600 to 1200 mg daily; assay type: in vivo, human; details: 600 mg to 1200 mg as a daily dose
Text: Symptoms of overdose may include swelling of face or around eyes, itching over the entire body, orange or red discoloration of skin or eyes, nausea, vomiting, drowsiness, and loss of consciousness. If overdose is suspected, contact your local poison control center or emergency room immediately. One needs to take the prescribed amount for tanning to avoid any overdosing.
It has one of the best safety records taken for such a long time. It can be safely used for tanning in the doses of 600 to 1200 mg (dose depending on the weight) day orally for 3-5 days or till one obtains the desired tan without any untoward effects.

[4] = 600 mg to 1200, up to 6 months or more, tuberculosis treatment; cited from earlier work

O=C[C@H](O)[C@H](O)[C@H](O)CO [D-ribose]
effect on wound surface (skin; applied directly to a wound): caused the surface to become brown | effect on tanning (skin; in water applied to the skin): showed no such effect on tanning

CO[C@H]1/C=C/O[C@@]2(C)Oc3c(C)c(O)c4c(c3C2=O)C2=NC3(CCN(CC(C)C)CC3)NC2=C(NC(=O)/C(C)=C\C=C\[C@H](C)[C@H](O)[C@@H](C)[C@@H](O)[C@@H](C)[C@H](OC(C)=O)[C@@H]1C)C4=O [Rifabutin]
hepatic enzyme induction (hepatic enzyme): less hepatic enzyme induction

CO[C@H]1/C=C/O[C@@]2(C)Oc3c(C)c(O)c4c(O)c(c(/C=N/N5CCN(C)CC5)c(O)c4c3C2=O)NC(=O)/C(C)=C\C=C\[C@H](C)[C@H](O)[C@@H](C)[C@@H](O)[C@@H](C)[C@H](OC(C)=O)[C@@H]1C [Rifampin]
plasma levels, mean ([1]; 600 mg dose on an empty stomach): 7000 ng/mL | effect of antacids on absorption ([1]; antacids): do not affect absorption | administered drug excreted unchanged through the urine ([1]; in vivo): about 7% | excretion into breast milk ([1]; in vivo): excreted into breast milk | fraction metabolized by the liver microsomal enzymes ([1]; in vivo): Approximately 85% | time after which almost the entire drug is deacetylated ([1]; in vivo): about 6 hours | urinary elimination, share of the dose that is excreted ([1]; in vivo): about 30% | time to peak plasma concentrations ([1]; orally administered): 1 to 2 h | peak blood concentration when taken with a meal ([1]; taken with a meal): 36% | dose eliminated within 24 hours ([1]; within 24 hours): Approximately 50% | tanning effect by skin type (human skin; […]): more pronounced in brown skinned | dandruff production (human skin; experimental test individuals using this method of tanning): less dandruff production | skin staining of tuberculosis patients (human skin; use for many months with exposure to Sun light): became much darkly stained | tanning result (human skin; volunteers and tanning booth users, minimum UVR exposure): good natural looking long lasting tanning | time until urine and facial orange coloration disappears [2]: ≤ 24 h | overdose effects [3]: haven't noticed any overdose effects | adverse effects [4]: without any serious adverse effect
